Measurements taken from publication PMC7479175, “Selection of Potent Inhibitors of Soluble Epoxide Hydrolase for Usage in Veterinary Medicine” (Frontiers in Veterinary Science, 2020).
Like-named read-outs stand apart in the source and are kept apart here.

Experiments:
[1] = Solubility of inhibitors in different solvents; assay type: physicochemical; conditions: thermodynamic from solid
Experimental: The un-dissolved compounds were filtered through a 0.22 μm centrifuge filter at 30 or 40°C and the supernatant further diluted 10-fold with methanol. The concentration of t-TUCB in the samples was determined by LC/MS/MS analysis as previously described ([15]).

[2] = test system: dogs with osteoarthritis; set-up: method as in PMID 31214021; conditions: ref [14]; cited from earlier work

`O=C(Nc1ccc(OC(F)(F)F)cc1)N[C@H]1CC[C@H](Oc2ccc(C(=O)O)cc2)CC1` [1,728, trans-4-{4-[3-(4-trifluoromethoxy-phenyl)-ureido]-cyclohexyloxy}-benzoic acid] showed a solubility at 24 h ([1]; aqueous buffer, Phosphate Buffer (0.1 M pH 7.4), 30°C, read-out: Solubility) of 0.011 mM, a solubility at 24 h ([1]; aqueous buffer, Phosphate Buffer (0.1 M pH 7.4), 40°C, read-out: Solubility in mg/mL) of 0.01 mg/mL and a solubility at 24 h ([1]; aqueous with cosolvent or surfactant or cyclodextrin, Tween 80, 30°C, read-out: Solubility) of 18 mM. It also gave a solubility at 24 h ([1]; aqueous with cosolvent or surfactant or cyclodextrin, Tween 80, 40°C, read-out: Solubility) of 34 mM, a solubility at 24 h ([1]; oil or lipid, Oleic rich oil, 30°C, read-out: Solubility) of 0.31 mM and a solubility at 24 h ([1]; oil or lipid, Oleic rich oil, 30°C, read-out: Solubility in mg/mL) of 0.13 mg/mL. For the same compound, the solubility at 24 h ([1]; oil or lipid, Oleic rich oil, 40°C, read-out: Solubility in mg/mL) was 0.1 mg/mL, the solubility at 24 h ([1]; organic solvent or mixture, Carbitol, 30°C, read-out: Solubility) was 83 mM and the solubility at 24 h ([1]; organic solvent or mixture, Carbitol, 30°C, read-out: Solubility in mg/mL) was 37 mg/mL. It also gave a solubility at 24 h ([1]; organic solvent or mixture, DMSO, 30°C, read-out: Solubility) of 299 mM, a solubility at 24 h ([1]; organic solvent or mixture, DMSO, 30°C, read-out: Solubility in mg/mL) of 131 mg/mL and a solubility at 24 h ([1]; organic solvent or mixture, DMSO, 40°C, read-out: Solubility) of 580 mM. For the same compound, the solubility at 24 h ([1]; organic solvent or mixture, DMSO, 40°C, read-out: Solubility in mg/mL) was 254 mg/mL, the solubility at 24 h ([1]; organic solvent or mixture, Ethanol, 30°C, read-out: Solubility) was 9 mM and the solubility at 24 h ([1]; organic solvent or mixture, Ethanol, 30°C, read-out: Solubility in mg/mL) was 4 mg/mL. The solubility at 24 h ([1]; organic solvent or mixture, Ethanol, 40°C, read-out: Solubility) was 32 mM, the solubility at 24 h ([1]; organic solvent or mixture, Ethanol, 40°C, read-out: Solubility in mg/mL) was 14 mg/mL and the solubility at 24 h ([1]; organic solvent or mixture, Glycerol, 30°C, read-out: Solubility) was 0.13 mM. It also gave a solubility at 24 h ([1]; organic solvent or mixture, Glycerol, 30°C, read-out: Solubility in mg/mL) of 0.06 mg/mL, a solubility at 24 h ([1]; organic solvent or mixture, Glycerol, 40°C, read-out: Solubility) of 0.41 mM and a solubility at 24 h ([1]; organic solvent or mixture, Glycerol, 40°C, read-out: Solubility in mg/mL) of 0.18 mg/mL. For the same compound, the solubility at 24 h ([1]; organic solvent or mixture, PEG200, 30°C, read-out: Solubility) was 195 mM, the solubility at 24 h ([1]; organic solvent or mixture, PEG200, 30°C, read-out: Solubility in mg/mL) was 85 mg/mL and the solubility at 24 h ([1]; organic solvent or mixture, PEG200, 40°C, read-out: Solubility) was 207 mM. For the same compound, the solubility at 24 h ([1]; organic solvent or mixture, PEG200, 40°C, read-out: Solubility in mg/mL) was 91 mg/mL, the solubility at 24 h ([1]; organic solvent or mixture, PEG300, 40°C, read-out: Solubility) was 254 mM and the solubility at 24 h ([1]; organic solvent or mixture, PEG300, 40°C, read-out: Solubility in mg/mL) was 111 mg/mL. It also gave a solubility at 24 h ([1]; organic solvent or mixture, PEG400, 30°C, read-out: Solubility) of 40 mM, a solubility at 24 h ([1]; organic solvent or mixture, PEG400, 30°C, read-out: Solubility in mg/mL) of 18 mg/mL and a solubility at 24 h ([1]; organic solvent or mixture, PEG400, 40°C, read-out: Solubility) of 57 mM. For the same compound, the solubility at 24 h ([1]; organic solvent or mixture, PEG400, 40°C, read-out: Solubility in mg/mL) was 25 mg/mL, the solubility at 24 h ([1]; organic solvent or mixture, Propylene glycol, 30°C, read-out: Solubility) was 9 mM and the solubility at 24 h ([1]; organic solvent or mixture, Propylene glycol, 30°C, read-out: Solubility in mg/mL) was 4 mg/mL. For the same compound, the solubility at 24 h ([1]; organic solvent or mixture, Propylene glycol, 40°C, read-out: Solubility) was 14 mM, the solubility at 24 h ([1]; organic solvent or mixture, Propylene glycol, 40°C, read-out: Solubility in mg/mL) was 6 mg/mL and the solubility at 24 h ([1]; organic solvent or mixture, Tween 80, 30°C, read-out: Solubility in mg/mL) was 8 mg/mL. The solubility at 24 h ([1]; organic solvent or mixture, Tween 80, 40°C, read-out: Solubility in mg/mL) was 15 mg/mL, the solubility at 24 h ([1]; organic solvent or mixture, such as Carbitol and polyethylene glycol (PEG), read-out: solubility in numerous organic liquids used in the formulation of drugs) was over 20 mg/mL and the pain perception [2] was “able to reduce pain perception”.
